Where two headings read alike, the source gives them in different places.

Test [1] relates to OVCAR-3 (ovary). Put plainly: Cell growth inhibition assay (SRB), OVCAR-3. The following applies: Homo sapiens, SRB method, 96 hours incubation. Format: cell-based. As for the experimental part:
(§1) OVCAR-3, MCF-7, PC3, HepG2, A549, HT-29 and MKN-45 were grown in RPMI1640 medium (Invitrogen, Carlsbad, Calif.) supplemented with 10% fetal bovine serum (‘FBS’), 1 mM sodium pyruvate, 10 mM HEPES and 100 U/ml penicillin and […] streptomycin (‘P/S’). MDA-MB-231, HCT116, UMRC2, Caki-1, PANC-1 and HEK293 cells were maintained in Dulbecco's modified Eagle's medium (‘DMEM’, Invitrogen) supplemented with 10% FBS, P/S, 10 mM HEPES and 2 mM L-glutamine. HUVEC was maintained in M199 supplemented with basic fibroblast growth factor (‘bFGF’) […] and FBS 20%. All cells were incubated at 37° C. under humidified 5% CO2.
(§2) The growth inhibition of the substituted quinoxalin-piperazine compounds against a variety of human tumor cells was evaluated. The relative importance of particular substituent groups on the compounds was also studied. The substituted piperazine derivative compounds, prepared as described above, were tested, along with DMSO as a control.
(§3) The growth inhibition assay of various compounds against human tumor cell lines was performed using the Sulforhodamine B (‘SRB’) method (Skehan et al., J. National Cancer Institute, 1990, 82, 1107-1112). […] Triplicate wells were used for each treatment. The cells were incubated with the various compounds for 96 hours at 37° C. in a humidified 5% CO2 atmosphere. After 96-hour incubation, cells were fixed with 10% trichloroacetic acid (‘TCA’), incubated for 1 hour at 4° C., and washed 3 times with tap water. Subsequently cells were stained with 0.4% sulforhodamine B in 1% acetic acid for 30 minutes, washed 4 times with 1% acetic acid, and air-dried again. After 5 minutes agitation in 10 mM Tris solution, the absorbance of each well was measured at 530 nm using Benchmark Plus Microplate reader (Bio-Rad Laboratories, Hercules, Calif.).
(§4) To translate the OD530 values into the number of live cells in each well, the OD530 values were compared to those on standard OD530-versus-cell number curves generated for each cell line. The percent survival was calculated using the formula: % Survival=live cell number[test]/live cell number[control]×100
(§5) The IC50 values were calculated by non-linear regression analysis.
On the technique in general: Sulforhodamine B stains cellular protein and so reports cell mass.

The test system of test [2] is A549 (lung). Put plainly: Cell growth inhibition assay (SRB), A549. The format is cell-based. The following applies: Homo sapiens, SRB method, 96 hours incubation. On the procedure: as §1, §2, §3, §4, §5
Test [3] relates to Caki-1 (kidney). Put plainly: Cell growth inhibition assay (SRB), Caki-1. Format: cell-based. The following applies: Homo sapiens, SRB method, 96 hours incubation. On the procedure: as §1, §2, §3, §4, §5
Test [4] concerns PANC-1 (pancreas). Put plainly: Cell growth inhibition assay (SRB), PANC-1. The following applies: SRB method, 96 hours incubation. Format: cell-based, human. On the procedure:
as §1, §2, §3, §4, §5

For test [5], the system named is HCT116 (colon). Put plainly: Cell growth inhibition assay (SRB), HCT116. Format: cell-based. The following applies: Homo sapiens, HCT-116, SRB method, 96 hours incubation. As for the experimental part: as §1, §2, §3, §4, §5
Test [6] has as its system HT-29 (colon). Put plainly: Cell growth inhibition assay (SRB), HT-29. The format is cell-based. The following applies: Homo sapiens, HT-29; HT29; SRB method, 96 hours incubation; read-out: Inhibition of cell growth (IC50, μM) by quinoxaline-piperazine compounds against human cancer cell lines: HT29. On the procedure:
as §1, §2, §3, §4, §5

Test [7] concerns HepG2 (liver). Put plainly: Cell growth inhibition assay (SRB), HepG2. Format: cell-based. The following applies: Homo sapiens; HepG2; SRB method, 96 hours incubation; read-out: Inhibition of cell growth (IC50, μM) by quinoxaline-piperazine compounds against human cancer cell lines: HepG2. As for the experimental part:
as §1, §2, §3, §4, §5

The subject of test [8] is MKN-45 (stomach). As to the kind of experiment: Cell growth inhibition assay (SRB), MKN-45. Format: cell-based. The following applies: Homo sapiens, MKN-45; MKN45; SRB method, 96 hours incubation; read-out: Inhibition of cell growth (IC50, μM) by quinoxaline-piperazine compounds against human cancer cell lines: MKN45. On the procedure: as §1, §2, §3, §4, §5
Test [9] deals with MDA-MB-231 (breast). As to the kind of experiment: Cell growth inhibition assay (SRB), MDA-MB-231. The format is cell-based, human. The following applies: SRB method, 96 hours incubation. On the procedure:
as §1, §2, §3, §4, §5

For test [10], the system named is MCF-7 (breast, hormone-dependent). Put plainly: Cell growth inhibition assay (SRB), MCF-7. The format is cell-based. The following applies: Homo sapiens, MCF7, SRB method, 96 hours incubation. As for the experimental part: as §1, §2, §3, §4, §5
The test system of test [11] is UMRC2 (kidney). Put plainly: Cell growth inhibition assay (SRB), UMRC2. The format is cell-based, human. The following applies: SRB method, 96 hours incubation. On the procedure: as §1, §2, §3, §4, §5
The test system of test [12] is PC3 (prostate). Put plainly: Cell growth inhibition assay (SRB), PC3. The following applies: Homo sapiens; PC-3; SRB method, 96 hours incubation; read-out: Inhibition of cell growth (IC50, μM) by quinoxaline-piperazine compounds against human cancer cell lines: PC-3. The format is cell-based. As for the experimental part: as §1, §2, §3, §4, §5
[13] abbreviates: OVCAR-3, OVCAR3, read-out: Inhibition of cell growth (IC50, μM) by quinoxaline-piperazine compounds against human cancer cell lines: OVCAR3.
Where [14] appears, read: A549, read-out: Inhibition of cell growth (IC50, μM) by quinoxaline-piperazine compounds against human cancer cell lines: A549.
The mark [15] stands for this setting: Caki-1, read-out: Inhibition of cell growth (IC50, μM) by quinoxaline-piperazine compounds against human cancer cell lines: Caki-1.
[16] abbreviates: Homo sapiens, PANC-1, read-out: Inhibition of cell growth (IC50, μM) by quinoxaline-piperazine compounds against human cancer cell lines: PANC-1.
Setting [17] is: HCT116, read-out: Inhibition of cell growth (IC50, μM) by quinoxaline-piperazine compounds against human cancer cell lines: HCT116.
Setting [18] is: Homo sapiens, MDA-MB-231, read-out: Inhibition of cell growth (IC50, μM) by quinoxaline-piperazine compounds against human cancer cell lines: MDA-MB-231.
Setting [19] is: read-out: Inhibition of cell growth (IC50, μM) by quinoxaline-piperazine compounds against human cancer cell lines: MCF7.
Setting [20] is: Homo sapiens, UMRC2, read-out: Inhibition of cell growth (IC50, μM) by quinoxaline-piperazine compounds against human cancer cell lines: UMRC2.
Setting [21] is: Homo sapiens, PANC-1 (pancreas), read-out: IC50, PANC-1.
[22] abbreviates: Homo sapiens, MDA-MB-231 (breast), read-out: IC50, MDA-MB-231.
[23] abbreviates: Homo sapiens, UMRC2 (kidney), read-out: IC50, UMRC2.
Setting [24] is: PANC-1 (pancreas), read-out: IC50, PANC-1.
Setting [25] is: MDA-MB-231 (breast), read-out: IC50, MDA-MB-231.
[26] abbreviates: UMRC2 (kidney), read-out: IC50, UMRC2.

By IC50 is commonly meant the point on the concentration scale where inhibition reaches its midpoint. On to `COc1cc(OC)cc(N2CCN(C(=O)Nc3nc4cc(F)ccc4nc3OC)CC2)c1` [Compound 5, 1-[(6-Fluoro-2-methoxyquinoxalin-3-yl)aminocarbonyl]-4-(3,5-dimethoxyphenyl)piperazine], for which the IC50 in [1] (setting [13]) amounted to 0.012 µM; in test [2] (setting [14]), 0.021 µM; in [3] (setting [15]), 0.011 µM; in test [4] (setting [16]) it was 0.021 µM; in test [5] (setting [17]) it was 0.019 µM; in test [6], 0.021 µM. The IC50 was 0.019 µM in [7]; 0.02 µM in [8]; 0.012 µM in [9] (setting [18]); 0.025 µM in test [10] (setting [19]); 0.013 µM in test [11] (setting [20]); 0.021 µM in test [12].

In the case of `COc1cc(OC)cc(N2CCN(C(=O)Nc3nc4cc(Cl)ccc4nc3OC)CC2)c1` [Compound 26, 1-[(6-Chloro-2-methoxyquinoxalin-3-yl)aminocarbonyl]-4-(3,5-dimethoxyphenyl)piperazine], the IC50 worked out at 0.042 µM in test [1] (setting [13]); 0.073 µM in test [2] (setting [14]); 0.053 µM in test [3] (setting [15]); 0.098 µM in test [4] (setting [16]); 0.068 µM in test [5] (setting [17]); 0.079 µM in [6]. In addition, the IC50 was 0.063 µM in test [7]; 0.064 µM in [8]; 0.05 µM in [9] (setting [18]); 0.076 µM in test [10] (setting [19]); 0.065 µM in test [11] (setting [20]); 0.076 µM in test [12].

`COc1cc(OC)cc(N2CCN(C(=O)Nc3nc4cc(C)ccc4nc3OC)CC2)c1` [Compound 47, 1-[(2-Methoxy-6-methylquinoxalin-3-yl)aminocarbonyl]-4-(3,5-dimethoxyphenyl)piperazine]: the IC50 in test [1] (setting [13]) amounted to 0.023 µM; in test [2] (setting [14]), 0.055 µM; in test [3] (setting [15]), 0.029 µM; in test [4] (setting [16]) it was 0.07 µM; in test [5] (setting [17]), 0.047 µM; in test [6] it was 0.048 µM. Also, the IC50 is 0.045 µM in test [7]; 0.04 µM in [8]; 0.032 µM in [9] (setting [18]); 0.063 µM in test [10] (setting [19]); 0.039 µM in test [11] (setting [20]); 0.063 µM in test [12].

On to `COc1nc2cc(Cl)ccc2nc1NC(=O)N1CCN(c2cccc(Cl)c2)CC1` [Compound 120, 1-[(6-Chloro-3-methoxyquinoxalin-2-yl)aminocarbonyl]-4-(3-chlorophenyl)piperazine], for which the IC50 in [1] (OVCAR-3 (ovary), read-out: IC50, OVCAR-3) was 0.36 µM; in test [2] (A549 (lung), read-out: IC50, A549), 0.75 µM; in test [3] (Caki-1 (kidney), read-out: IC50, Caki-1), 0.4 µM; in test [4] (setting [21]), 0.24 µM; in [5] (HCT116 (colon), read-out: IC50, HCT116), 0.48 µM; in test [9] (setting [22]) it was 0.17 µM. The IC50 in test [10] (MCF-7 (breast, hormone-dependent), read-out: IC50, MCF-7) was 0.6 µM; in test [11] (setting [23]) it was 0.17 µM.

`COc1ccc2nc(NC(=O)N3CCN(c4cccc(C(F)(F)F)c4)CC3)c(OC)nc2c1` [Compound 158, 1-[(3,6-Dimethoxyquinoxalin-2-yl)aminocarbonyl]-4-(3-trifluorotoly)piperazine]: the IC50 in test [4] (setting [24]), in test [9] (setting [25]) and in test [11] (setting [26]) was over 1 µM throughout.

Turning to `COc1ccc2nc(NC(=O)N3CCN(c4cccc(Cl)c4)CC3)c(OC)nc2c1` [Compound 162, 1-[(3,6-Dimethoxyquinoxalin-2-yl)aminocarbonyl]-4-(3-chlorophenyl)piperazine], the IC50 in test [4] (setting [21]) came to 0.46 µM; in test [9] (setting [22]), 0.23 µM; in test [11] (setting [23]), 0.29 µM.

Regarding `COc1ccc2nc(NC(=O)N3CCN(c4ccccn4)CC3)c(OC)nc2c1` [Compound 167, 1-[(3,6-Dimethoxyquinoxalin-2-yl)aminocarbonyl]-4-(2-pyridyl)piperazine], the IC50 in [4] (setting [21]), in test [9] (setting [22]) and in [11] (setting [23]) was over 1 µM each time.

With `COc1nc2cc(F)c(F)cc2nc1NC(=O)N1CCN(c2cc(C)cc(C)c2)CC1` [Compound 172, 1-[(6,7-Difluoro-2-methoxyquinoxalin-3-yl)aminocarbonyl]-4-(3,5-dimethylphenyl)piperazine], the half-inhibitory concentration (IC50) in [4] (setting [21]) was 1 µM; in test [9] (setting [22]), 0.7 µM; in test [11] (setting [23]) it was 0.56 µM.

As for `COc1cc(OC)cc(N2CCN(C(=O)Nc3nc4cc(Cl)c(Cl)cc4nc3OC)CC2)c1` [Compound 177, 1-[(6,7-Dichloro-2-methoxyquinoxalin-3-yl)aminocarbonyl]-4-(3,5-dimethoxyphenyl)piperazine], the IC50 was 1.16 µM in test [4] (setting [21]), 1.45 µM in [9] (setting [22]) and 0.58 µM in [11] (setting [23]).

Take `COc1cc(OC)cc(N2CCN(C(=O)Nc3nc4cc(OC)c(OC)cc4nc3OC)CC2)c1` [Compound 191, 1-[(2,6,7-Trimethoxyquinoxalin-3-yl)aminocarbonyl]-4-(3,5-dimethoxyphenyl)piperazine]: the IC50 in test [4] (setting [21]) worked out at 0.9 µM; in test [9] (setting [22]), 0.69 µM; in test [11] (setting [23]), 0.49 µM.

On to `COc1cc2nc(NC(=O)N3CCN(c4cc(C)cc(C)c4)CC3)c(OC)nc2cc1OC` [Compound 193, 1-[(2,6,7-Trimethoxyquinoxalin-3-yl)aminocarbonyl]-4-(3,5-dimethylphenyl)piperazine], for which the IC50 in [4] (setting [21]) is 0.69 µM; in test [9] (setting [22]), 0.65 µM; in test [11] (setting [23]), 0.47 µM.

Consider `COc1cc2nc(NC(=O)N3CCN(c4cccc(C(F)(F)F)c4)CC3)c(OC)nc2cc1OC` [Compound 194, 1-[(2,6,7-Trimethoxyquinoxalin-3-yl)aminocarbonyl]-4-(3-trifluorotolyl)piperazine], for which the IC50 came to 1.4 µM in [4] (setting [24]), 0.75 µM in test [9] (setting [25]) and 0.79 µM in test [11] (setting [26]).

For `COc1cc2nc(NC(=O)N3CCN(c4cccc(Br)c4)CC3)c(OC)nc2cc1OC` [Compound 196, 1-[(2,6,7-Trimethoxyquinoxalin-3-yl)aminocarbonyl]-4-(3-bromophenyl)piperazine], the results for the IC50 in [4] (setting [21]), in [9] (setting [22]) and in test [11] (setting [23]) were 1.05 µM, 0.72 µM and 0.65 µM, respectively.

For the origin of these results see US8598173B2, “1-[(6,7-substituted alkoxyquinoxalinyl)aminocarbonyl]-4-(hetero)arylpiperazine derivatives for treating tumors” (Korea Research Institute of Chemical Technology, priority 2004, dated 2013).
